Activity calls are given as the source filed them. The rule behind the calls is not given here.
Experiments:
Trypanosoma cruzi [1] = test: Antiparasitic activity against trypomastigote form of Trypanosoma cruzi Tulahuen expressing Escherichia coli beta-galactosidase infected in mouse L929 cells assessed as reduction in parasitic growth using CPRG as substrate pretreated with compound for 96 hrs followed by substrate addition and measured after 16 to 20 hrs by Spectrophotometric analysis; format: functional, organism-based
[2] = Cytotoxicity against mouse L929 cells assessed as inhibition of cell viability incubated for 96 hrs by MTT assay; format: toxicity, cell-based
[3] = Selectivity index, ratio of CC50 for mouse L929 cells to IC50 for antiparasitic activity against trypomastigote and amastigote form of Trypanosoma cruzi Tulahuen expressing Escherichia coli beta-galactosidase infected in mouse L929 cells; format: toxicity; conditions: read-out: Selectivity Index
Trypanosoma cruzi [4] = test: Antiparasitic activity against Trypanosoma cruzi Y trypomastigotes infected in male Swiss mouse assessed as reduction in parasitemia at 100 mg/kg/day, po pre-infected with parasite followed by compound addition and measured at 1 to 5 days post-infection by microscopic analysis; format: functional, organism-based; conditions: time 1-5 day
[5] = Toxicity in male Swiss mouse infected with Trypanosoma cruzi Y trypomastigotes assessed as mortality at 100 mg/kg/day, po pre-infected with parasite followed by compound addition and measured after 5 to 9 days relative to control; format: organism-based; conditions: in vivo, time 5-9 day; for Activity: po, 100 mg/kg
Trypanosoma cruzi [6] = test: Antiparasitic activity against amastigote form of Trypanosoma cruzi Tulahuen expressing Escherichia coli beta-galactosidase infected in mouse L929 cells assessed as reduction in parasitic growth using CPRG as substrate pretreated with compound for 96 hrs followed by substrate addition and measured after 16 to 20 hrs by Spectrophotometric analysis; format: functional, organism-based
Trypanosoma cruzi [7] = test: Antiparasitic activity against trypomastigote form of Trypanosoma cruzi Y assessed as appearance of membrane rupture by Electron micrographic analysis; format: functional, organism-based
Trypanosoma cruzi [8] = test: Antiparasitic activity against trypomastigote form of Trypanosoma cruzi Y assessed as appearance of twisted bodies by Electron micrographic analysis; format: functional, organism-based
RAW264.7 [9] = test: Immunomodulatory activity in mouse RAW264.7 cells assessed as increase in IL-6 production at 1 to 4 times IC50 incubated for 24 to 144 hrs by flow cytometric analysis; format: functional, cell-based; conditions: time 24-144 hrs
RAW264.7 [10] = test: Immunomodulatory activity in mouse RAW264.7 cells assessed as decrease in IL-10 production at 1 to 4 times IC50 incubated for 24 to 144 hrs by flow cytometric analysis; format: functional, cell-based; conditions: time 24-144 hrs
[11] = Acute toxicity in male Swiss-Webster mouse infected with Trypanosoma cruzi Y assessed as mortality at 5 to 200 mg/kg, po measured after 48 hrs; format: organism-based; conditions: in vivo, dose 5-200 mg/kg
[12] = Acute toxicity in male Swiss-Webster mouse infected with Trypanosoma cruzi Y assessed as side effects at 5 to 200 mg/kg, po measured after 48 hrs; format: organism-based; conditions: in vivo, dose 5-200 mg/kg
[13] = Acute toxicity in female Swiss-Webster mouse infected with Trypanosoma cruzi Y assessed as mortality at 5 to 200 mg/kg, po measured after 48 hrs; format: organism-based; conditions: in vivo, dose 5-200 mg/kg
[14] = Acute toxicity in female Swiss-Webster mouse infected with Trypanosoma cruzi Y assessed as side effects at 5 to 200 mg/kg, po measured after 48 hrs; format: organism-based; conditions: in vivo, dose 5-200 mg/kg
Trypanosoma cruzi [15] = test: Antitrypanosomal activity against trypomastigote form of Trypanosoma cruzi Y assessed as induction of apoptosis at 1 times IC50 by measuring early apoptosis incubated for 24 hrs by Annexin V-FITC/7-AAD staining based flow cytometric analysis relative to control; format: functional
Trypanosoma cruzi [16] = test: Antitrypanosomal activity against trypomastigote form of Trypanosoma cruzi Y assessed as induction of apoptosis at 2 times IC50 by measuring late apoptotic cells incubated for 24 hrs by Annexin V-FITC/7-AAD staining based flow cytometric analysis relative to control; format: functional
Trypanosoma cruzi [17] = test: Antitrypanosomal activity against trypomastigote form of Trypanosoma cruzi Y assessed as induction of apoptosis at 2 times IC50 by measuring necrotic cells incubated for 24 hrs by Annexin V-FITC/7-AAD staining based flow cytometric analysis relative to control; format: functional
Trypanosoma cruzi [18] = test: Antitrypanosomal activity against trypomastigote form of Trypanosoma cruzi Y assessed as induction of apoptosis at 2 times IC50 by measuring early apoptosis incubated for 24 hrs by Annexin V-FITC/7-AAD staining based flow cytometric analysis relative to control; format: functional
Mitochondrial membrane = test: Induction of mitochondrial membrane hyperpolarization in trypomastigote form of Trypanosoma cruzi Y at IC50 incubated for 24 hrs by Rhodamine 123 staining based flow cytometric analysis; format: cell membranes
Cell membrane = test: Induction of cell membrane damage in trypomastigote form of Trypanosoma cruzi Y assessed as decrease in red fluorescence intensity incubated for 24 hrs by acridine orange staining based flow cytometric analysis; format: subcellular
Trypanosoma cruzi [19] = test: Antiparasitic activity against trypomastigote form of Trypanosoma cruzi Y assessed as presence of bubbles by Electron micrographic analysis; format: functional, organism-based
Trypanosoma cruzi [20] = test: Antiparasitic activity against trypomastigote form of Trypanosoma cruzi Y assessed as appearance of filamentous structures scattered across the membrane by Electron micrographic analysis; format: functional, organism-based
Trypanosoma cruzi [21] = test: Antiparasitic activity against trypomastigote form of Trypanosoma cruzi Y assessed as appearance of swollen cells with cytoplasmic content leakage by Electron micrographic analysis; format: functional, organism-based
Trypanosoma cruzi [22] = test: Antiparasitic activity against trypomastigote form of Trypanosoma cruzi Y assessed as appearance of ruptured cells with cytoplasmic content leakage by Electron micrographic analysis; format: functional, organism-based
RAW264.7 [23] = test: Immunomodulatory activity in mouse RAW264.7 cells assessed as nitric oxide formation at 1 to 4 times IC50 incubated for 72 hrs by Griess reagent based Spectrophotometric analysis; format: functional, cell-based
RAW264.7 [24] = test: Immunomodulatory activity in mouse RAW264.7 cells assessed as decrease in TNF production at 1 to 4 times IC50 incubated for 24 to 144 hrs by flow cytometric analysis; format: functional, cell-based; conditions: time 24-144 hrs
Leishmania amazonensis [25] = test: Antiparasitic activity against Leishmania amazonensis WHOM/00 LTB 0016 promastigote expressing Escherichia coli beta-galactosidase assessed as reduction in parasitic growth using CPRG as substrate preincubated with compound for 72 hrs followed by substrate addition and measured after 10 mins by Spectrophotometric analysis; format: functional, organism-based
Leishmania infantum [26] = test: Antiparasitic activity against Leishmania infantum MHOM/MA/67/ITMAP-263 promastigote expressing Escherichia coli beta-galactosidase assessed as reduction in parasitic growth using CPRG as substrate preincubated with compound for 72 hrs followed by substrate addition and measured after 10 mins by Spectrophotometric analysis; format: functional, organism-based
Leishmania amazonensis [27] = test: Antiparasitic activity against Leishmania amazonensis amastigote expressing Escherichia coli beta-galactosidase infected in mouse RAW264.7 cells assessed as reduction in parasitic growth using CPRG as substrate preincubated with compound for 24 hrs followed by substrate addition and measured after 2 to 6 hrs by Spectrophotometric analysis; format: functional, organism-based
Leishmania infantum [28] = test: Antiparasitic activity against Leishmania infantum amastigote expressing Escherichia coli beta-galactosidase infected in mouse RAW264.7 cells assessed as reduction in parasitic growth using CPRG as substrate preincubated with compound for 24 hrs followed by substrate addition and measured after 2 to 6 hrs by Spectrophotometric analysis; format: functional, organism-based; conditions: Leishmania infantum, RAW264.7; read-out: IC50
[29] = Cytotoxicity against mouse RAW264.7 cells assessed as inhibition of cell viability incubated for 48 hrs by MTT assay; format: toxicity, cell-based
[30] = Selectivity index, ratio of CC50 for mouse RAW264.7 cells to IC50 for antiparasitic activity against Leishmania infantum amastigote expressing Escherichia coli beta-galactosidase infected in mouse RAW264.7 cells; format: toxicity; conditions: read-out: Selectivity Index
[31] = Selectivity index, ratio of CC50 for mouse RAW264.7 cells to IC50 for antiparasitic activity against Leishmania infantum MHOM/MA/67/ITMAP-263 promastigote expressing Escherichia coli beta-galactosidase; format: toxicity; conditions: read-out: Selectivity Index
[32] = Selectivity index, ratio of CC50 for mouse RAW264.7 cells to IC50 for antiparasitic activity against Leishmania amazonensis WHOM/00 LTB 0016 promastigote expressing Escherichia coli beta-galactosidase; format: toxicity; conditions: read-out: Selectivity Index
[33] = Selectivity index, ratio of CC50 for mouse RAW264.7 cells to IC50 for antiparasitic activity against Leishmania amazonensis amastigote expressing Escherichia coli beta-galactosidase infected in mouse RAW264.7 cells; format: toxicity; conditions: read-out: Selectivity Index

Compound | IC50 (Trypanosoma cruzi [1]) | CC50 at 96 h [2] | selectivity ratio [3] | Activity (Trypanosoma cruzi [4]) | IC50 (Trypanosoma cruzi [6]) | Activity (Trypanosoma cruzi [8]) | Activity (RAW264.7 [9]) | Activity (RAW264.7 [10]) | Activity [11] | Activity [12] | Activity [13] | Activity [14] | Activity [5] | Activity (Trypanosoma cruzi [15]) | Activity (Trypanosoma cruzi [16]) | Activity (Trypanosoma cruzi [17]) | Activity (Trypanosoma cruzi [18]) | Activity (Mitochondrial membrane) | Activity (Cell membrane) | Activity (Trypanosoma cruzi [19]) | other results
O=C(Cn1ccnc1[N+](=O)[O-])NCc1ccccc1 [BENZNIDAZOLE] | 4.2 µM | 2070 µM | 494 | Active | 4.2 µM | Active | Active | Active |  |  |  |  |  |  |  |  |  |  |  |  | mortality ([5]; male, Swiss, read-out: Activity): 100%; Activity (Trypanosoma cruzi [7]): Active
C/C(=N\Nc1nc(-c2cccc([N+](=O)[O-])c2)cs1)c1cccnc1 | 0.4 µM | 114 µM | 284 | inactive | 0.4 µM |  | Active | Active | Non-toxic | Non-toxic | Non-toxic | Non-toxic | Toxic | 29.2% | 9.39% | 2.31% | 7.55% | Active | Dose-dependent-effect | Dose-dependent-effect | Activity (Trypanosoma cruzi [20]): Dose-dependent-effect; Activity (Trypanosoma cruzi [21]): Dose-dependent-effect; Activity (Trypanosoma cruzi [22]): Dose-dependent-effect; Activity (RAW264.7 [23]): Active; Activity (RAW264.7 [24]): inactive; IC50 (Leishmania amazonensis [25]): Not_active; IC50 (Leishmania infantum [26]): Not_active; IC50 (Leishmania amazonensis [27]; raw264.7): Not_active; IC50 (Leishmania infantum [28]): 93.8 µM; CC50 at 48 h [29]: 35.3 µM; selectivity ratio [30]: 0.4
C/C(=N\N=c1\scc(-c2ccccc2)n1C)c1cccnc1 | 0.3 µM | 3.5 µM | 11.7 | inactive | 0.3 µM | Dose-dependent-effect | Active | Active | Non-toxic | Non-toxic | Non-toxic | Non-toxic | Toxic | 29.4% | 3.04% | 2.36% | 61.6% | Active | Dose-dependent-effect | Dose-dependent-effect | Activity (Trypanosoma cruzi [20]): Dose-dependent-effect; Activity (Trypanosoma cruzi [21]): Dose-dependent-effect; Activity (Trypanosoma cruzi [22]): Dose-dependent-effect; Activity (RAW264.7 [23]): Active; Activity (RAW264.7 [24]): Active; IC50 (Leishmania amazonensis [25]; Leishmania amazonensis, WHOM/00 LTB 0016, read-out: IC50): 7.1 µM; IC50 (Leishmania infantum [26]; Leishmania infantum, MHOM/MA/67/ITMAP-263, read-out: IC50): 5.2 µM; IC50 (Leishmania amazonensis [27]; Leishmania amazonensis, RAW264.7, read-out: IC50): 9.4 µM; IC50 (Leishmania infantum [28]): 8.4 µM; CC50 at 48 h [29]: 5.5 µM; selectivity ratio [31]: 1.1; selectivity ratio [30]: 0.7; selectivity ratio [32]: 0.8; selectivity ratio [33]: 0.6

From ChEMBL document CHEMBL6121008, “New series of 3-pyridyl-1,3-thiazoles: In vitro and in vivo anti-Trypanosomatidae profile, in vitro and in silico mechanism of action approach” (Eur J Med Chem, 2025)
